According to PMC6886544:
Several values for one entry are separate records, joined by “and”; a condition that tells them apart may be missing. Identical values can stand only once. Like-named read-outs stand apart in the source and are kept apart here.

Legend:
[1] = tested on: H1975 cells (EGFR-L858R/T790M); test: CellTiter-Glo viability assay, H1975
EGFR-wt = EGFR-wt (Homo sapiens, UniProt P00533); test: HTRF KinEASE-TK activity-based assay, EGFR-wt
H358 cells (KRAS mutant) = test: CellTiter-Glo viability assay, H358; type: cell-based; settings: Homo sapiens, read-out: KRAS CTG EC50 H358;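 note: viable cell number estimated from ATP-dependent luminescence following exposure to serially diluted inhibitor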
EGFR-L858R/T790M = EGFR-L858R/T790M (Homo sapiens, UniProt P00533, L858R/T790M); test: HTRF KinEASE-TK activity-based assay, EGFR-L858R/T790M
A549 cells (KRAS mutant) = test: CellTiter-Glo viability assay, A549; settings: Homo sapiens, A549, 96 h, read-out: KRAS CTG EC50 A549
[2] = tested on: HCC827 cells (EGFR-delE746_A750); test: CellTiter-Glo viability assay, HCC827; type: cell-based; settings: Homo sapiens; HCC827, 96 hours, CellTiter-Glo; read-out: EGFR CTG EC50 HCC827;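 note: luminescence from ATP content as a measure of metabolically active cells, in RPMI with 10% FBS, compound added as serial dilutions after 24 h of preculture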
EGFR-L858R = EGFR-L858R (Homo sapiens, UniProt P00533, L858R); test: HTRF KinEASE-TK activity-based assay, EGFR-L858R
[3] = tested on: A431 cells (EGFR wild type); test: CellTiter-Glo viability assay, A431; settings: Homo sapiens, A-431, 96 h, read-out: EGFR CTG EC50 A431, A431, 96 hours, CellTiter-Glo
[4] = Microsomal stability (phase I), mouse; type: in vitro ADME; settings: mouse liver microsomes, up to 60 minutes, 37 °C
Procedure: Microsomal stability (phase I) assay.
Metabolic stability under oxidative conditions was measured in liver microsomes from different
time up to 50 minutes (HLM) or 60 minutes (MLM) at 37 °C. Based on the compound half-life t1/2,
the in vitro intrinsic clearance CLint was calculated. […]

[5] = Homo sapiens, NCI-H1975, 96 h, read-out: EGFR CTG EC50 H1975, H1975, 96 hours, CellTiter-Glo
[6] = read-out: EGFR CTG EC50 H1975, H1975, 96 hours, CellTiter-Glo
[7] = EGFR HTRF IC50 wt, ATP at Km (9.5 µM), 30 min preincubation, mean ± SD of three independent measurements in duplicates
[8] = NCI-H358, H358, 96 hours, CellTiter-Glo
[9] = EGFR HTRF IC50 L858R/T790M, ATP at Km (4 µM), 30 min preincubation, mean ± SD of three independent measurements in duplicates

Chain of EGFR-wt (P00533 25-1210): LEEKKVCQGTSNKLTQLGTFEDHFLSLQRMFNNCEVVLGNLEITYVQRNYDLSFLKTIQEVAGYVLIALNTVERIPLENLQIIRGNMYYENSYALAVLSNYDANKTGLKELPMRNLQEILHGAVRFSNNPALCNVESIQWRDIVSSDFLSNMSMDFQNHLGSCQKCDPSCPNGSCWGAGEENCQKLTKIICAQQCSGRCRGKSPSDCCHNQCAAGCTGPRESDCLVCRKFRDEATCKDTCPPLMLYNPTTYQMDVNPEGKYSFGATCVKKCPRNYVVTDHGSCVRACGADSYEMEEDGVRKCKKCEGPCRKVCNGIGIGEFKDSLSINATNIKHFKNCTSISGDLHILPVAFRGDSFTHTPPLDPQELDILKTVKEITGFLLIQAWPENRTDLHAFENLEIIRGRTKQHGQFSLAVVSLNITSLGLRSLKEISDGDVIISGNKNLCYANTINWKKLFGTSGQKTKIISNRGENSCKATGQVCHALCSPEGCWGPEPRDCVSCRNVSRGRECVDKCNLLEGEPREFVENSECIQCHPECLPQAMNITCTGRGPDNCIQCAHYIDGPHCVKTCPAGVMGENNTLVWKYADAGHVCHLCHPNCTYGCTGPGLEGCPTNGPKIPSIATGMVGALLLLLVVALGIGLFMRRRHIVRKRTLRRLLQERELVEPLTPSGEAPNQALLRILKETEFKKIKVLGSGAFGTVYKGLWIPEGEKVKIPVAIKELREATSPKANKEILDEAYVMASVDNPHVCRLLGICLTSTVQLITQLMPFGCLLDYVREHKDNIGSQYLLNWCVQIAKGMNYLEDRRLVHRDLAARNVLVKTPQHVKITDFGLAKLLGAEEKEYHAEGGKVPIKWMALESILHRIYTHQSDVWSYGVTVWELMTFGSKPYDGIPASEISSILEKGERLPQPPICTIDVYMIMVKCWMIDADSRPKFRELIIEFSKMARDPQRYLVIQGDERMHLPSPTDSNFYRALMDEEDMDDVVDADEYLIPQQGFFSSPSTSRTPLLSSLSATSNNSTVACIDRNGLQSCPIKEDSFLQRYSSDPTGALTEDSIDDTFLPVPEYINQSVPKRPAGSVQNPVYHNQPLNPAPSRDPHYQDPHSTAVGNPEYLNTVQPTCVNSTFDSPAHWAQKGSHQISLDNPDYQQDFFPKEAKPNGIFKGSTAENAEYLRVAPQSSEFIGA
Chain of EGFR-L858R/T790M (P00533 25-1210 T790M/L858R): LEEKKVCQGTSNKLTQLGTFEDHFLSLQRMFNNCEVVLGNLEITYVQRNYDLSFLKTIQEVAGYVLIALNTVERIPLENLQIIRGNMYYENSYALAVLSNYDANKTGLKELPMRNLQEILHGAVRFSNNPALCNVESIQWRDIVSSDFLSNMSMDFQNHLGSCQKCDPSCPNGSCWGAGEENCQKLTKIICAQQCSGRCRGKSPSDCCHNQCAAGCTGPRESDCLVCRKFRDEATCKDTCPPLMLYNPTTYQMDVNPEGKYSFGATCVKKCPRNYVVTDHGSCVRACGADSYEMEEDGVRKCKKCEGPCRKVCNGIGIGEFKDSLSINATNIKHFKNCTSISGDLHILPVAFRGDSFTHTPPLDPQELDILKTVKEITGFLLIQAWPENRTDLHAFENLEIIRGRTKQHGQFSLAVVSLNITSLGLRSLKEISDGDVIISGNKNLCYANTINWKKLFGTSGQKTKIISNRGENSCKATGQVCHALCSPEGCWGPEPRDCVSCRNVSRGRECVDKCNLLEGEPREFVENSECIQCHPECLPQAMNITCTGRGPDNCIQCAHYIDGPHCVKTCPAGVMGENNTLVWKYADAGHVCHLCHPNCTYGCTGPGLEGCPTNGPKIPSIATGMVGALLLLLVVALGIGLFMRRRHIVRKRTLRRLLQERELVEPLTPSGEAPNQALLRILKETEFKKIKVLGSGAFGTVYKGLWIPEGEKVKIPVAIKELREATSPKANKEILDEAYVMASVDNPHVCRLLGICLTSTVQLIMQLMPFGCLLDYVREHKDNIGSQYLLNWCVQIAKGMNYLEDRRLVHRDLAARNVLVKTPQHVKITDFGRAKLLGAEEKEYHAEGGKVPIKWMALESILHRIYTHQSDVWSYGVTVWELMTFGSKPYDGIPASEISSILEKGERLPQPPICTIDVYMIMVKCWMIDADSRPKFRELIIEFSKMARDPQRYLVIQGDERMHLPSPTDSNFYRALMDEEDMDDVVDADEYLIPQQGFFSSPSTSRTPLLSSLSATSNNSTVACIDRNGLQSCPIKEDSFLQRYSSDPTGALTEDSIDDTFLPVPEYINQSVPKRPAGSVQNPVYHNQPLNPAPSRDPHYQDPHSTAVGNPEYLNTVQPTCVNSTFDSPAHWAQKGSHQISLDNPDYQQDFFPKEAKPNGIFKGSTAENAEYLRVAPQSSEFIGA
Chain of EGFR-L858R (P00533 25-1210 L858R): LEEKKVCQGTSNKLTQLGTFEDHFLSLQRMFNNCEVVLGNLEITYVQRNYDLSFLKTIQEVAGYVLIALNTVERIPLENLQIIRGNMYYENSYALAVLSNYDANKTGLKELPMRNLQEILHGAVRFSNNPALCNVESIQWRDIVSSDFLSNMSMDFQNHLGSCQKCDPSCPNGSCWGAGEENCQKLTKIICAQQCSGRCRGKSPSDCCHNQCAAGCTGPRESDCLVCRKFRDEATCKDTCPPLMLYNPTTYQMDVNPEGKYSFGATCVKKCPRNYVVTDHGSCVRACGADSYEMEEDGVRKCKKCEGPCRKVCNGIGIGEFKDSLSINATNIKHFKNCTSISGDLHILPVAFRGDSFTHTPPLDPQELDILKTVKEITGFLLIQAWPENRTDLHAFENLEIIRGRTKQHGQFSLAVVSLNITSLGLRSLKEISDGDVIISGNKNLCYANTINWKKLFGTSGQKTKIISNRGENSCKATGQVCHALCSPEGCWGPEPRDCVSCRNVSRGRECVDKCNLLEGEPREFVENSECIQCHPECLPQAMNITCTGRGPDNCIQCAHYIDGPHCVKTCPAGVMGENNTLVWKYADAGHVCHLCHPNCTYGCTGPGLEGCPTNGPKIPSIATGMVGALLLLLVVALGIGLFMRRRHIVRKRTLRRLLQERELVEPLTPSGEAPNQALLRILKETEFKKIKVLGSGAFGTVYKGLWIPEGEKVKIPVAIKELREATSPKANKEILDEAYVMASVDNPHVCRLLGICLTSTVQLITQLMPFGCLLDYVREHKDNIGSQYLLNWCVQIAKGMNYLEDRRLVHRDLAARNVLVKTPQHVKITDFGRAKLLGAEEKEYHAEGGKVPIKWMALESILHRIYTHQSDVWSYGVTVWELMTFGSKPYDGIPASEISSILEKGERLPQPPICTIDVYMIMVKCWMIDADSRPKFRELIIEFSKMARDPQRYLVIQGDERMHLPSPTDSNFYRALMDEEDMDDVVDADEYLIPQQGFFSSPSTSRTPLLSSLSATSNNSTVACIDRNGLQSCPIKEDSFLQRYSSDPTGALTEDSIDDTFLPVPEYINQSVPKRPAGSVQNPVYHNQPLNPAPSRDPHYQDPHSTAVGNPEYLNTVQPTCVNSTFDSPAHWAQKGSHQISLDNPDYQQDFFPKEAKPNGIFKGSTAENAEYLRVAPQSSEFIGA

Structure (SMILES)	EC50 [1, 5]	EC50 [1, 6]	IC50 (EGFR-wt; [7])	EC50 (H358 cells (KRAS mutant); [8])	IC50 (EGFR-L858R/T790M; [9])	EC50 (A549 cells (KRAS mutant))	EC50 [2]	IC50 (EGFR-L858R)	EC50 [3]	microsomal CLint at 3 µM [4]	EC50 ([1]; Homo sapiens, NCI-H1975, read-out: EC50 / potency in H1975 cells, H1975, rounded value in running text)	IC50 (EGFR-wt; IC50 EGFR-wt, rounded value)	EC50 (H358 cells (KRAS mutant); NCI-H358, 96 h)	IC50 (EGFR-L858R/T790M; IC50 gatekeeper mutant EGFR, rounded value)
C=CC(=O)Nc1cc(-c2c(-c3ccc(N4CCN(C)CC4)cc3)[nH]c3ncnc(OC)c23)ccc1OCCOC [Compound 20a]	~300 nM	298 ± 251 nM	0.2 ± 0.1 nM	1100 nM	< 0.1 nM	956 nM	< 14 nM	< 0.1 nM	–	–	–	–	–	–
C=CC(=O)Nc1cccc(-c2c(-c3ccc(N4CCN(C)CC4)cc3)[nH]c3ncnc(OCCCSC)c23)c1 [Compound 19e]	281 ± 88 nM	–	0.2 nM	2570 ± 338 nM	0.1 ± 0.1 nM	3010 ± 916 nM	< 14 nM	< 0.1 nM	3680 ± 500 nM	–	–	–	–	–
C=CC(=O)Nc1cccc(-c2c(-c3ccc(N4CCN(C)CC4)cc3)[nH]c3ncnc(OC4CCCC4)c23)c1 [Compound 19f]	107 ± 45 nM	–	0.2 nM	–	< 0.1 nM	–	–	< 0.1 nM	1790 ± 744 nM	128 µL/min/mg	–	–	–	–
COc1ncnc2[nH]c(-c3ccc(C)cc3)c(-c3cccc(NC(=O)C=CCN4CCCCC4)c3)c12 [Compound 10c]	1900 ± 269 nM	–	220 ± 57 nM	4250 ± 336 nM	158 ± 16 nM	4480 ± 896 nM	253 ± 1 nM	197 ± 11 nM	2750 ± 1220 nM	–	~2000 nM	–	–	–
C=CC(=O)Nc1cccc(-c2c(-c3ccccc3)[nH]c3ncnc(OC)c23)c1 [Compound 1a]	–	–	1200 ± 87 nM	> 30000 nM	176 ± 33 nM	> 30000 nM	827 ± 234 nM	133 ± 57 nM	> 30000 nM	156 µL/min/mg	–	~1000 nM	–	–
C=CC(=O)Nc1cccc(-c2c(-c3ccc(N4CCN(C)CC4)cc3)[nH]c3ncnc(OCC)c23)c1 [Compound 19c]	64 ± 25 nM	–	0.2 ± 0.1 nM	1660 ± 759 nM	0.1 ± 0.1 nM	1020 ± 46 nM	< 14 nM	< 0.1 nM	759 ± 394 nM	–	–	–	–	–
CN(C)C/C=C/C(=O)Nc1cc2c(Nc3ccc(F)c(Cl)c3)ncnc2cc1O[C@H]1CCOC1 [Afatinib, afatinib, reference compound]	–	–	–	–	–	1490 ± 430 nM	–	–	–	6 µL/min/mg	–	–	1330 ± 515 nM	–
CCC(=O)Nc1cccc(-c2c(-c3ccc(CN4CCN(C)CC4)cc3)[nH]c3ncnc(OC)c23)c1 [Compound 17b]	9610 ± 1120 nM	–	460 ± 162 nM	10300 ± 2170 nM	302 ± 84 nM	5730 ± 1430 nM	1520 ± 399 nM	116 ± 57 nM	5670 ± 60 nM	–	–	–	–	–
CCC(=O)Nc1cccc(-c2c(-c3ccc(N4CCN(C)CC4)cc3)[nH]c3ncn(C)c(=O)c23)c1 [Compound 19b]	–	–	996 ± 395 nM	10200 ± 2240 nM	305 ± 192 nM	6260 ± 1090 nM	1790 ± 727 nM	147 ± 97 nM	9730 ± 4020 nM	–	–	–	–	–
CCC(=O)Nc1cccc(-c2c(-c3ccccc3)[nH]c3ncnc(OC)c23)c1 [Compound 1b]	> 30000 nM	–	5370 ± 1920 nM	> 30000 nM	3960 ± 614 nM	> 30000 nM	–	1700 ± 747 nM	> 30000 nM	–	–	5000 nM	–	4000 nM
C=CC(=O)Nc1cccc(-c2c(-c3ccc(N4CCN(C)CC4)cc3)[nH]c3ncnc(OC)c23)c1 [Compound 19a]	60 ± 8 nM	–	0.4 nM	1670 ± 721 nM	0.2 nM	840 ± 289 nM	< 14 nM	0.1 nM	638 ± 247 nM	–	–	–	–	–
C=CC(=O)Nc1cccc(-c2c[nH]c3ncnc(OC)c23)c1 [Compound 9]	9910 ± 3390 nM	–	82 ± 4 nM	24500 ± 4870 nM	< 100 nM and 31 nM	13600 ± 1400 nM	2170 ± 968 nM	14 ± 2 nM	–	–	–	–	–	–
C=CC(=O)Nc1cccc(-c2c(-c3ccc(N4CCN(C)CC4)cc3)[nH]c3nc[nH]c(=O)c23)c1 [Compound 19i]	–	–	12 ± 4 nM	> 30000 nM	24 ± 12 nM	> 30000 nM	557 ± 266 nM	12 ± 4 nM	–	–	–	–	–	–
C=CC(=O)Nc1cccc(Nc2nc(Nc3ccc(N4CCN(C(C)=O)CC4)cc3OC)ncc2C(F)(F)F)c1 [Rociletinib, rociletinib, reference compound]	145 ± 86 nM	–	–	–	–	–	45 ± 11 nM	–	1910 ± 467 nM	–	–	–	–	–

The next lines start with the values.

EC50 [1, 5]	EC50 [1, 6]	IC50 (EGFR-wt; [7])	EC50 (H358 cells (KRAS mutant); [8])	IC50 (EGFR-L858R/T790M; [9])	EC50 (A549 cells (KRAS mutant))	EC50 [2]	IC50 (EGFR-L858R)	EC50 [3]	microsomal CLint at 3 µM [4]	EC50 ([1]; Homo sapiens, NCI-H1975, read-out: EC50 / potency in H1975 cells, H1975, rounded value in running text)	IC50 (EGFR-wt; IC50 EGFR-wt, rounded value)	EC50 (H358 cells (KRAS mutant); NCI-H358, 96 h)	IC50 (EGFR-L858R/T790M; IC50 gatekeeper mutant EGFR, rounded value)	Structure (SMILES)
< 200 nM	188 ± 64 nM	1.2 ± 0.1 nM	9510 ± 403 nM	0.5 nM	8820 ± 697 nM	82 ± 20 nM	0.5 nM	1140 ± 350 nM	–	–	–	–	–	C=CC(=O)Nc1cccc(-c2c(-c3ccc(N4CCN(C)CC4)cc3)[nH]c3ncn(C)c(=O)c23)c1 [Compound 29a]
686 ± 199 nM	–	0.8 ± 0.2 nM	6840 ± 866 nM	> 1 nM and 3.4 nM	6140 ± 2120 nM	45 ± 7 nM	0.2 ± 0.1 nM	1100 ± 506 nM	–	–	–	–	–	C=CC(=O)Nc1cccc(-c2c(-c3ccc(N4CCN(C)CC4)cc3)[nH]c3ncn(CC(C)C)c(=O)c23)c1 [Compound 29h]
723 ± 188 nM	–	0.4 ± 0.1 nM	> 30000 nM	0.9 ± 0.1 nM	22400 ± 11200 nM	< 14 nM	0.1 ± 0.1 nM	1870 ± 595 nM	–	–	–	–	–	C=CC(=O)Nc1cccc(-c2c(-c3ccc(N4CCN(C)CC4)cc3)[nH]c3ncn(CCSC)c(=O)c23)c1 [Compound 29e]
–	–	4.6 ± 1.1 nM	11900 nM	20 ± 6 nM	24700 ± 7550 nM	134 nM	1.7 ± 0.5 nM	–	–	–	–	–	–	C=CC(=O)Nc1cccc(-c2c(-c3ccc(N4CCN(C)CC4)cc3)[nH]c3ncn(CCCSC)c(=O)c23)c1 [Compound 29f]
183 ± 48 nM	–	5.1 ± 0.1 nM	2040 nM	4.9 ± 1.3 nM	1390 nM	22 ± 2 nM	4 ± 2.7 nM	1020 ± 335 nM	–	–	–	–	–	C#CCn1cnc2[nH]c(-c3ccc(N4CCN(C)CC4)cc3)c(-c3cccc(NC(=O)C=C)c3)c2c1=O [Compound 29c]
550 ± 157 nM	–	0.2 nM	3270 ± 693 nM	4.5 ± 0.8 nM	2970 ± 1070 nM	< 14 nM	0.3 ± 0.3 nM	767 ± 151 nM	–	–	–	–	–	C=CC(=O)Nc1cccc(-c2c(-c3ccc(N4CCN(C)CC4)cc3)[nH]c3ncn(CCCC)c(=O)c23)c1 [Compound 29d]
228 ± 73 nM	–	1.1 ± 0.8 nM	1790 ± 520 nM	> 1 nM and 7.7 nM	1380 ± 985 nM	< 14 nM	0.9 ± 0.6 nM	453 ± 218 nM	–	–	–	–	–	C=CC(=O)Nc1cccc(-c2c(-c3ccc(N4CCN(C)CC4)cc3)[nH]c3ncn(CC4CC4)c(=O)c23)c1 [Compound 29k]
296 ± 64 nM	–	–	–	–	–	< 14 nM	–	4380 ± 1390 nM	–	–	–	–	–	Cc1cc(C(=O)Nc2nc3cccc(Cl)c3n2[C@@H]2CCCCN(C(=O)/C=C/CN(C)C)C2)ccn1 [EGF816, nazartinib, reference compound]
4680 ± 1030 nM	–	–	3780 ± 383 nM	–	3970 ± 720 nM	16 ± 3 nM	–	1790 ± 1090 nM	–	–	–	–	–	CCN1CCN(Cc2ccc(-c3cc4c(N[C@H](C)c5ccccc5)ncnc4[nH]3)cc2)CC1 [AEE788, reference compound]
1570 ± 260 nM	–	1 ± 0.2 nM	> 30000 nM	> 1 nM and 21 nM	25200 ± 8250 nM	44 ± 26 nM	1.5 ± 0.8 nM	1080 ± 169 nM	–	–	–	–	–	C=CC(=O)Nc1cccc(-c2c(-c3ccc(N4CCN(C)CC4)cc3)[nH]c3ncn(Cc4ccccc4)c(=O)c23)c1 [Compound 29l]
